Measurements: US20230203059A1, “MACROCYCLIC JAK INHIBITOR AND USES THEREOF” (Biopolar Hongye (Guangdong) Pharmaceutical Co. Ltd., priority 2020, published 2023)
Like-named read-outs stand apart in the source and are kept apart here.

How the values were obtained:
Assay type in all cases: biochemical
JAK3 = target: T1, JAK3 (Homo sapiens, UniProt P52333); assay: JAK kinase activity, homogeneous time-resolved fluorescence (JAK3 reaction system)
T1 sequence (P52333 1-1124): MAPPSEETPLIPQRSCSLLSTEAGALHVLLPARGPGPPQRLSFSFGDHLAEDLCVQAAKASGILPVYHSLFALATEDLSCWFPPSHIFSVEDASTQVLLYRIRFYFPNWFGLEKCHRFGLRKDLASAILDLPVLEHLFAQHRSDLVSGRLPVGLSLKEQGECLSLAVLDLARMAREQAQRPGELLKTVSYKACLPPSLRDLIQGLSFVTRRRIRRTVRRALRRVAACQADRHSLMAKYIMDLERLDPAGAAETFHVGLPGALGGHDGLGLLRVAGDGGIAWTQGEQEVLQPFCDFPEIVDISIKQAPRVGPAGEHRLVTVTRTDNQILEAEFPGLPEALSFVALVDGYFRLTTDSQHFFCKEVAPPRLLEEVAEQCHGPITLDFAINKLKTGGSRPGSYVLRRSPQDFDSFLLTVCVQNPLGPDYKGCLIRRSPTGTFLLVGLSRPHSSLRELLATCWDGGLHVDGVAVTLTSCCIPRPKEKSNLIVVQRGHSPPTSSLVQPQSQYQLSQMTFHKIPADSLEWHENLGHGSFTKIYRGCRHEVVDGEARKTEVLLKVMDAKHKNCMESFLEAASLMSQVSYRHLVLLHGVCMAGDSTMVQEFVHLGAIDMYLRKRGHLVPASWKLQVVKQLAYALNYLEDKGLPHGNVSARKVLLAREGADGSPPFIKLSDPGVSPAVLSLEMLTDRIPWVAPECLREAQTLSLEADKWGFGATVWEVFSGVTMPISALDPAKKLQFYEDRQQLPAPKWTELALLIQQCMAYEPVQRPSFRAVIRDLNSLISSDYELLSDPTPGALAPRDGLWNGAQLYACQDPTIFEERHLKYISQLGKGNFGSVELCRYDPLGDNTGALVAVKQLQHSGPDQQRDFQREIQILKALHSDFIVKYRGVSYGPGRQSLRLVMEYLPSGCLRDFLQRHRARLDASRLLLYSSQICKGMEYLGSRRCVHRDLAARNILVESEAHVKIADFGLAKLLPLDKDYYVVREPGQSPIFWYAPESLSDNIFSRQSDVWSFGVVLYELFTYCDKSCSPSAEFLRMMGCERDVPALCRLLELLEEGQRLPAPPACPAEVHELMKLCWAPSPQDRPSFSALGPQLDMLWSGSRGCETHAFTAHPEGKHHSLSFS
Description: The activity measurement method of JAK kinase was to use homogeneous time-resolved fluorescence technique. […] The mixture of kinase protein, compound, ATP and substrate was carried out in a reaction buffer of 50 mM Hepes (pH7.0), NaN3 0.02%, BSA 0.01%, 0.1 mM Orthocanadate, 5 mM MgCl2, and 1 mM DTT. […] The reaction signal of kinase was detected by PE company's porous plate detector. The parameter settings were excitation light at 320 nm, emission light at 615 nm and 665 nm. The activity of JAK is indirectly reflected by the signal ratio of 665 nm and 615 nm. In the reaction, the background well without enzyme and the total enzyme activity well without compound were set. […]
In JAK3 reaction system, the concentration of ATP was 2 μM, and the concentration of JAK3 protein was 0.04 ng/μL.

TYK2 = TYK2 (Homo sapiens, UniProt P29597); assay: JAK kinase activity, homogeneous time-resolved fluorescence (TYK2 reaction system); conditions: ATP 2 μM, TYK2 protein 0.2 ng/μL; read-out: TYK 2 activity
Description: (§1) The activity measurement method of JAK kinase was to use homogeneous time-resolved fluorescence technique. The reaction was performed in 384 shallow well plates with a total reaction volume of 10 μL. The mixture of kinase protein, compound, ATP and substrate was carried out in a reaction buffer of 50 mM Hepes (pH7.0), NaN3 0.02%, BSA 0.01%, 0.1 mM Orthocanadate, 5 mM MgCl2, and 1 mM DTT. After reacting for 1 hour, an antibody capable of recognizing substrate phosphorylation, dye XL-615 and detection buffer (Cisbio) containing EDTA were added to the system. The reaction signal of kinase was detected by PE company's porous plate detector. The parameter settings were excitation light at 320 nm, emission light at 615 nm and 665 nm. The activity of JAK is indirectly reflected by the signal ratio of 665 nm and 615 nm. In the reaction, the background well without enzyme and the total enzyme activity well without compound were set.
(§2) The IC50 value of the compound inhibiting protein was obtained by the formula: Y=100/(1+10^((Log IC50−X)*HillSlope)). In JAK1 reaction system, the concentration of ATP was 2 μM, and the concentration of JAK1 protein was 0.2 ng/μL.
In TYK2 reaction system, the concentration of ATP was 2 μM, and the concentration of TYK2 protein was 0.2 ng/μL.

JAK1 = JAK1 (Homo sapiens, UniProt P23458); assay: JAK kinase activity, homogeneous time-resolved fluorescence (JAK1 reaction system); conditions: ATP 2 μM, JAK1 protein 0.2 ng/μL; read-out: JAK 1 activity
Description: as §1, §2

JAK2 = JAK2 (Homo sapiens, UniProt O60674); assay: JAK kinase activity, homogeneous time-resolved fluorescence (JAK2 reaction system); conditions: ATP 2 μM, JAK2 protein 0.01 ng/μL
Description: as §1, §2
In JAK2 reaction system, the concentration of ATP was 2 μM, and the concentration of JAK2 protein was 0.01 ng/μL.

[1] = ATP 2 μM, JAK3 protein 0.04 ng/μL, read-out: JAK 3 activity

JAK2, sequence (O60674 whole entry): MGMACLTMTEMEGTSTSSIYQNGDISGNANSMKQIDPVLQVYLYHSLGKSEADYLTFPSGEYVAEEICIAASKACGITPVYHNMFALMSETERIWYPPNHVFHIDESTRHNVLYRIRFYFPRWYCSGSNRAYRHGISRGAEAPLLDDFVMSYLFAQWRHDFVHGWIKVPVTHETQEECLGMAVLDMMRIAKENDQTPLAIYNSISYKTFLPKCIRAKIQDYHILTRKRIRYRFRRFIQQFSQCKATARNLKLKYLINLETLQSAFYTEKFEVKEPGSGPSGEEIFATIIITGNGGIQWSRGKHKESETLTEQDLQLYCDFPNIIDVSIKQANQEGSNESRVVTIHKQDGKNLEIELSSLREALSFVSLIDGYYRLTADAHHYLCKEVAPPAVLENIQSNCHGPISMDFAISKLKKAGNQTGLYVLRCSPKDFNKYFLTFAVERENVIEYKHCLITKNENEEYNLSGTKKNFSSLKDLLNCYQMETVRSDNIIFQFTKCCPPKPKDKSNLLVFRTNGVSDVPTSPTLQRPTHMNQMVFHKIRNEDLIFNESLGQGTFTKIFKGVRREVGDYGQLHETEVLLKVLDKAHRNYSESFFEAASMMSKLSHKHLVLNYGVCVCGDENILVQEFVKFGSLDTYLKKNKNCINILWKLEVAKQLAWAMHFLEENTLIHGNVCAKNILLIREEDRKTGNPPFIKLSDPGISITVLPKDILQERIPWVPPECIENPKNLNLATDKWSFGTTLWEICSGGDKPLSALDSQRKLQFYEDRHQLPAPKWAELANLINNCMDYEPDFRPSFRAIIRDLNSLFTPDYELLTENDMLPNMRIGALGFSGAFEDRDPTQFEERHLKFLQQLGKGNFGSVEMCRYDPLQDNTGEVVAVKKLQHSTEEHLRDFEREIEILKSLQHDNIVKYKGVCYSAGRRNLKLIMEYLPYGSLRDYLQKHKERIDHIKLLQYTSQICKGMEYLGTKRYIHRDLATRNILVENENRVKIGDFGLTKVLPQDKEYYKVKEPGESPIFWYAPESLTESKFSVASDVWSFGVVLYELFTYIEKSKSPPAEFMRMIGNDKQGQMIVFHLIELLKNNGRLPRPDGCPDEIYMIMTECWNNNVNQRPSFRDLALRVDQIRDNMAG
TYK2, sequence (P29597 whole entry): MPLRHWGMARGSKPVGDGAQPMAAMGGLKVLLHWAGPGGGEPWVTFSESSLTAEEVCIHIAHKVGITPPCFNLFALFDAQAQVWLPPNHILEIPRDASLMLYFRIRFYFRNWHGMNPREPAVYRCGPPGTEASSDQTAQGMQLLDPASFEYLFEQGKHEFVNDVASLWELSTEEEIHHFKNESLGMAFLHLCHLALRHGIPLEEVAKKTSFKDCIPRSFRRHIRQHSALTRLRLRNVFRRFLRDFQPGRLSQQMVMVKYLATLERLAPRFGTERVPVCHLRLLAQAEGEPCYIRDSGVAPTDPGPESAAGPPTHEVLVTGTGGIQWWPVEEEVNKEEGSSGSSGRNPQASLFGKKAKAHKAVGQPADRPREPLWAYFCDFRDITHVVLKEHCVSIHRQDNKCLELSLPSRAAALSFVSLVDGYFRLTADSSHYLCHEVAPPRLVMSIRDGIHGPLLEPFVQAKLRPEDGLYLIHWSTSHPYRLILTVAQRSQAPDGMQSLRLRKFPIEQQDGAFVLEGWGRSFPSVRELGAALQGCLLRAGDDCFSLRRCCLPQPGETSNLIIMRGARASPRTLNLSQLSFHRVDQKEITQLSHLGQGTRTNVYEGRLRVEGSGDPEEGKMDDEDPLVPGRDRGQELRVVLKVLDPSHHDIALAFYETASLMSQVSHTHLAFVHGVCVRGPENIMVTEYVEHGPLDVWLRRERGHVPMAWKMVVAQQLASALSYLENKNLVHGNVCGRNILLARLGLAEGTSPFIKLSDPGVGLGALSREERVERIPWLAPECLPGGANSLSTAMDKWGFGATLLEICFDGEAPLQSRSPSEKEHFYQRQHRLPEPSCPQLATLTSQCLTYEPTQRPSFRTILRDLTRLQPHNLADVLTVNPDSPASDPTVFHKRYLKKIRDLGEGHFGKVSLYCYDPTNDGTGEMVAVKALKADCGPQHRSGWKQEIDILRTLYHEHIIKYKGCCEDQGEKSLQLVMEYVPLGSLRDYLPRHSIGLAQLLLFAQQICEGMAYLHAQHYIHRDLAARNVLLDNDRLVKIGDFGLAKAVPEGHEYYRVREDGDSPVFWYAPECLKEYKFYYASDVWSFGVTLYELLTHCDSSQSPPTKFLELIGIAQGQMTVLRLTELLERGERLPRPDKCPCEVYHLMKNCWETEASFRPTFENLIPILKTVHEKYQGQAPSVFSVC
JAK1, sequence (P23458 whole entry): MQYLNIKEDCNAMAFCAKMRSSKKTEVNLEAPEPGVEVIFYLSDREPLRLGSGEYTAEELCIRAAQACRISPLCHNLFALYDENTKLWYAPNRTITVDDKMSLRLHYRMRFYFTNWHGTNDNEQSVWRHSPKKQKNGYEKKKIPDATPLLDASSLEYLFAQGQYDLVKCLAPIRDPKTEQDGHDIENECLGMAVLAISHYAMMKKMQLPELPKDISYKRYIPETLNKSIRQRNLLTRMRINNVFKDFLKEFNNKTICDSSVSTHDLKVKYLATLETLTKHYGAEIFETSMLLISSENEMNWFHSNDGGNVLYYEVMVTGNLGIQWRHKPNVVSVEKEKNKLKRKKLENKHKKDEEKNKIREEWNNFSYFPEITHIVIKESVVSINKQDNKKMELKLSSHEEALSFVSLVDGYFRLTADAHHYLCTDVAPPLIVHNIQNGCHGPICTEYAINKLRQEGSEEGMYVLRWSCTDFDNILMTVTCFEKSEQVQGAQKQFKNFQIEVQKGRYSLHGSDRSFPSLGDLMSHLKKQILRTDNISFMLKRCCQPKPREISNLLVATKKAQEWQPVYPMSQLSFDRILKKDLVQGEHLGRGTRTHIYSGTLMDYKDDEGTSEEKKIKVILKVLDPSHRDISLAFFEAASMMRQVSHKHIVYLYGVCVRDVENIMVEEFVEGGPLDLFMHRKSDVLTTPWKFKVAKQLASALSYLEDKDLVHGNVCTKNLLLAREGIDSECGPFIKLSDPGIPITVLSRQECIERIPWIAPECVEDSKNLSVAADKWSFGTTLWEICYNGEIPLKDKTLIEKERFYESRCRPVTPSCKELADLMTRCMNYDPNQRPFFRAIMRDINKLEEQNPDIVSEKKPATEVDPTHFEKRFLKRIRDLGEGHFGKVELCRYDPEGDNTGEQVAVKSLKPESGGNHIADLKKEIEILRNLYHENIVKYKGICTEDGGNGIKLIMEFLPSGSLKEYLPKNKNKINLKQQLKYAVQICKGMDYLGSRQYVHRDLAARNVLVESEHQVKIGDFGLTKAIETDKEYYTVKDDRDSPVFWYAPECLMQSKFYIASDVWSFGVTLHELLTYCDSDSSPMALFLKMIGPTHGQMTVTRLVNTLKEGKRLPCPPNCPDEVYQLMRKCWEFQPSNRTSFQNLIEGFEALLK

SMILES | IC50 (JAK3; [1]) | IC50 (TYK2) | IC50 (JAK1) | IC50 (JAK2) | IC50 (JAK3)
CC1CCNC(=O)c2ccc(c([N+](=O)[O-])c2)-c2ccnc(n2)Nc2ccc(OCC3CCCC3)c(c2)COC1 (stereo not drawn) [Example 128, 4^4-(cyclopentylmethoxy)-8-methyl-1^2-nitro-6-oxa-3,11-diaza-2(4,2)-pyrimidina-1(1,4),4(1,3)-dibenzena-cyclododecaphan-12-one] | 0.101 to 1 µM | > 10 µM | > 10 µM | > 10 µM | 
O=C1Nc2ccc(cc2)OCc2cc(ccc2OCC2CCCOC2)Nc2nccc(n2)-c2ccc1cc2[N+](=O)[O-] (stereo not drawn) [Example 212, 1^2-nitro-4^4-((tetrahydro-2H-pyran-3-yl)methoxy)-6-oxa-3,8-diaza-2(4,2)-pyrimidina-1,7(1,4),4(1,3)-tri-benzenacyclononaphane-9-one] | 1 to 10 µM | > 10 µM | 1 to 10 µM | 1 to 10 µM | 
CC1CCNC(=O)c2ccc(c(N)c2)-c2ccnc(n2)Nc2ccc(OCC(F)(F)F)c(c2)COC1 (stereo not drawn) [Example 132] | < 0.01 µM | > 10 µM | 1 to 10 µM | 0.101 to 1 µM | 
Nc1cc2ccc1-c1ccnc(n1)Nc1ccc(OCC3CC3)c(c1)COc1ccc(cc1)NC2=O [Example 208, 1^2-amino-4^4-(cyclopropylmethoxy)-6-oxa-3,8-diaza-2(4,2)-pyrimidina-1,7(1,4),4(1,3)-tribenzenecyclo-nonaphane-9-one] | 0.011 to 0.1 µM | > 10 µM | > 10 µM | 1 to 10 µM | 
O=C1NCCCCOCc2cc(ccc2N2CCSCC2)Nc2nccc(n2)-c2ccc1cc2 [Example 6, 4^4-thiomorpholin-6-oxa-3,11-diaza-2(4,2)-pyrimidina-1(1,4),4(1,3)-dibenze-nacyclododecaphan-12-one] |  | 0.101 to 1 µM | 0.101 to 1 µM | 0.011 to 0.1 µM | 0.011 to 0.1 µM
CC1(C)CCNC(=O)c2ccc(c(N)c2)-c2ccnc(n2)Nc2ccc(OC3CC3)c(c2)COC1 [Example 176, 1^2-amino-4^4-cyclopropoxy-8,8-di-methyl-6-oxa-3,11-diaza-2(4,2)-py-rimidina-1(1,4),4(1,3)-dibenzena-cyclododecaphan-12-one] | 1 to 10 µM | > 10 µM | > 10 µM | > 10 µM | 
O=C1Nc2ccc(cc2)OCc2cc(ccc2F)Nc2nccc(n2)-c2ccc1cc2O [Example 216, 4^4-fluoro-1^2-hydroxy-6-oxa-3,8-dia-za-2(4,2)-pyrimidina-1,7(1,4),4(1,3)-tribenzenacyclononaphane-9-one] | 0.011 to 0.1 µM | 1 to 10 µM | 0.101 to 1 µM | 0.101 to 1 µM | 

The next lines start with results.

IC50 (JAK3; [1]) | IC50 (TYK2) | IC50 (JAK1) | IC50 (JAK2) | SMILES | IC50 (JAK3)
0.011 to 0.1 µM | 1 to 10 µM | 1 to 10 µM | 0.101 to 1 µM | C[C@H]1CCOCc2cc(ccc2OC2CC2)Nc2nccc(n2)-c2ccc(cc2N)C(=O)NC1 [Example 180, (S)-1^2-amino-4^4-cyclopropoxy-9-methyl-6-oxa-3,11-diaza-2(4,2)-py-rimidina-1(1,4),4(1,3)-dibenzena-cyclododecaphan-12-one] | 
< 0.01 µM | 0.101 to 1 µM | 0.011 to 0.1 µM | 0.011 to 0.1 µM | O=C1NCCCCOCc2cc(ccc2N2CCOCC2)Nc2nccc(n2)-c2ccc1cc2 [Example 1, 4^4-morpholin-6-oxa-3, 11-diaza-2 (4,2)-pyrimidina-1(1,4),4(1,3)-dibenzenacyclododecaphan-12-one] | 
< 0.01 µM | 1 to 10 µM | 0.101 to 1 µM | 0.101 to 1 µM | CC(C)Oc1ccc2cc1COCCCCNC(=O)c1ccc(c(N)c1)-c1ccnc(n1)N2 [Example 67, 1^2-amino-4^4-isopropoxy-6-oxa-3,11-diaza-2(4,2)-pyrimidina-1(1,4),4(1,3)-dibenzenacyclododecaphan-12-one] | 
0.011 to 0.1 µM | 0.101 to 1 µM | 0.101 to 1 µM | 0.011 to 0.1 µM | Nc1cc2ccc1-c1ccnc(n1)Nc1ccc(N3CCSCC3)c(c1)COCCCCNC2=O [Example 66, 1^2-amino-4-thiomorpholin-6-oxa-3,11-diaza-2(4,2)-pyrimidina-1(1,4),4(1,3)-dibenzenacyclo-dodecaphan-12-one] | 
0.011 to 0.1 µM | 1 to 10 µM | 0.101 to 1 µM | 0.101 to 1 µM | Nc1cc2ccc1-c1ccnc(n1)Nc1cccc(c1)COCCCCNC2=O [Example 54, 1^2-amino-6-oxa-3,11-diaza-2(4,2)-py-rimidina-1(1,4),4(1,3)-dibenzena-cyclododecaphan-12-one] | 
0.011 to 0.1 µM | 0.101 to 1 µM | 0.101 to 1 µM | 0.011 to 0.1 µM | O=C1NCCCCOCc2cc(cc(N3CCOCC3)c2)Nc2nccc(n2)-c2ccc1cc2F [Example 27, 1^2-fluoro-4^5-morpholin-6-oxa-3,11-diaza-2(4,2)-pyrimidina-1(1,4),4(1,3)-dibenzenacyclododecaphan-12-one] | 
0.101 to 1 µM | 1 to 10 µM | 1 to 10 µM | 0.101 to 1 µM | O=C1NCCCCOCc2cc(ccc2N2CCOCC2)Nc2nccc(n2)-c2ccc1cc2OC(F)(F)F [Example 22, 4^4-morpholin-1^2-trifluoromethoxy-6-oxa-3,11-diaza-2(4,2)-pyrimidina-1(1,4),4(1,3)-dibenzenacyclododeca-phan-12-one] | 
0.011 to 0.1 µM | 0.101 to 1 µM | 0.101 to 1 µM | 0.011 to 0.1 µM | CN(C)c1ccc2cc1COCCCCNC(=O)c1ccc(c(F)c1)-c1ccnc(n1)N2 [Example 28, 1^2-fluoro-4^4-dimethylamino-6-oxa-3,11-diaza-2(4,2)-pyrimidina-1(1,4),4(1,3)-dibenzenacyclododecaphan-12-one] | 
0.011 to 0.1 µM | 1 to 10 µM | 1 to 10 µM | 0.101 to 1 µM | Nc1cc2ccc1-c1ccnc(n1)Nc1ccc(F)c(c1)COCCCCNC2=O [Example 69, 1^2-amino-4^4-fluoro-6-oxa-3,11-diaza-2(4,2)-pyrimidina-1(1,4),4(1,3)-di-benzenacyclododecaphan-12-one] | 
0.011 to 0.1 µM | 1 to 10 µM | 1 to 10 µM | 1 to 10 µM | Nc1cc2ccc1-c1ccnc(n1)Nc1ccc(OCC3CCc4ccccc43)c(c1)COCCCCNC2=O (stereo not drawn) [Example 134, 1^2-amino-4^4-((2,3-dihydro-1H-inden-1-yl)methoxy)-6-oxa-3,11-diaza-2(4,2)-pyrimidina-1(1,4),4(1,3)-dibenzenacyclododecaphan-12-one] | 
0.101 to 1 µM | 1 to 10 µM | 1 to 10 µM | 0.101 to 1 µM | COc1cc2ccc1-c1ccnc(n1)Nc1ccc(N3CCOCC3)c(c1)COCCCCNC2=O [Example 21, 1^2-methoxy-4^4-morpholin-6-oxa-3,11-diaza-2(4,2)-pyrimidina-1(1,4),4(1,3)-dibenzenacyclododecaphan-12-one] | 
